From patent publication EP4029501A1, “COMBINATION OF POLYAROMATIC UREA DERIVATIVES AND GLUCOCORTICOID OR HDAC INHIBITOR FOR THE TREATMENT OF DISEASES OR CONDITIONS ASSOCIATED WITH MUSCLE CELLS AND/OR SATELLITE CELLS” (Anagenesis Biotechnologies, priority 2021, dated 2022)

Legend:
Assay type in all cases: cell-based, human
Pax7 positive cells = experiment: Dose response assay of combination treatments with Givinostat or Prednisolone: percentage of Pax7-positive cells; details: for drop of satellite cells content: compound alone at 0.3 µM, DMD hMPs (figure 6); for loss of Pax7 positive cells: compound alone, dose-dependent, highest concentration 10 µM (Figure 6 legend)
Description: (§1) • Figure 1 - the workflow of the myotube assay, aiming at monitoring myogenic activity of compounds and effect on satellite-like cells. • Figure 2 - the myogenic activity of compound (i) in a dose-response assay, as shown by an increase of the total myotube surface/well upon increase of compound concentration. • Figure 3 - the positive effect on satellite-like cells of compound (i) in a dose-response assay, as shown by the increase of Pax7-positive cell percentage upon increase of compound concentration. • Figure 4 - representative images for the dose-response of the total myotube area readout for compound (i), corresponding to Figure 2. • Figure 5 - representative images for the dose-response of the percentage of Pax7-positive cell readout for compound (i), corresponding to Figure 3. • Figure 6 - Dose-response curve on muscle progenitors derived from DMD hiPSC. Treatment of muscle progenitors derived from DMD hiPSC with Prednisolone or Givinostat alone inducing a beneficial effect on α-actinin expression (representative of the myotube surface) and a loss of nearly 50 % of Pax7 positive cells (representative of the population of satellite cells) in a dose-dependent manner. The highest concentration represented is 10 µM. The arrows show the point a 0.3 µM. Efficacy values correspond to the highest score of normalized myotube surface (y-axis). Activity values correspond to the half maximal effective concentration (EC50; x-axis). The curve fits were calculated using a 4-parameter logistic regression model (Graphpad PRISM software). Error bars show standard deviation (SD). The picture on the right panel is representative of the highest myotube surface value of the dose-response curve. • Figures 7-9 - Dose-response curve on muscle progenitors derived from DMD hiPSC. Treatment in a dose-dependent manner of muscle progenitors derived from DMD hiPSC with indicated compound alone or with combination with Prednisolone or Givinostat at 0.3 µM. The combination induced an improvement of myogenic capabilities seen with α-actinin expression (representative of the myotube surface) and harbor no worsening of the Pax7 positive cells (representative of the population of satellite cells) compared to Prednisolone or Givinostat alone. The highest concentration of DRC is 10 µM.
(§2) Figure 1 provides an example of a Myotube assay workflow. At day 0, hMP are thawed and 3.1 million cells are plated into a T75-flask coated with hESC-qualified Matrigel™ (Corning) in SkGM proliferating medium (PromoCells), supplemented with 5 µM Y-27632 (Tocris Bioscience). On day 2, SkGM proliferating medium is refreshed. On day 4, hMP are harvested and transferred into a 384-well plate coated with collagen type I at a density of 3500 cells/well in a DMEM-based medium, containing 5% of knockout serum replacement (Gibco), 1% PenStrep (Gibco), 1% MEM NEAA (Gibco) and 0.1 mM 2-mercaptoethanol (Gibco) (hereafter "K5 medium") and 5 µM Y-27632. Compounds to be tested are then added in the medium and incubated for 3 days at 37°C. On day 7, cells are fixed and immunostained. For example, myotubes (alpha-actinin staining) and satellite-like (Pax7 staining) cells can be analyzed for total myotube area per well or Pax7-positive cell quantification.
DMD hMPs were put in the Myotube assay according to the workflow described in example 2.1. In particular, Prednisolone (Sigma) or Givinostat (Exclusive Chemistry) were added in all conditions at a fixed concentration equal to 0.3 µM in combination with compounds az or bw or q tested in DRC at 8 concentrations ranging from 4.5 nM to 10 µM, starting from day 4. Also, as control, DRCs with the same range of concentrations were done with Prednisolone alone, Givinostat (figure 6) alone or compounds az or bw or q alone (figures 7 to 9). […]

[1] = tested on: muscle progenitors derived from DMD hiPSC; experiment: Dose response assay of combination treatments with Givinostat or Prednisolone: total myotube area; details: Homo sapiens, Myotube; compound alone, DRC 4.5 nM to 10 µM, DMD hMPs (figure 6); read-out: potency (EC50) on myotube surface
Description: as §1
Efficacy values correspond to the highest score of normalized myotube surface (y-axis). Activity values correspond to the half maximal effective concentration (EC50; x-axis). The curve fits were calculated using a 4-parameter logistic regression model (Graphpad PRISM software). Error bars show standard deviation (SD). The picture on the right panel is representative of the highest myotube surface value of the dose-response curve.
as §2
DMD hMPs were put in the Myotube assay according to the workflow described in example 2.1. […]

[2] = tested on: muscle progenitors derived from DMD hiPSC; experiment: Myotube assay: total myotube area per well (alpha-actinin staining); details: Homo sapiens, Myotube, 72 h, DMD or WT cell source not given; for Emax: efficacy, MA = normalized Myotube Area, 3 days incubation; for EC50: myogenic activity, half-maximal generation of myotubes, 10 points dose-response 1.5 nM to 30 µM, 3 days
In short: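 DMD hiPSC-derived muscle progenitors (NCRM-1 background) plated at 3500 cells/well in K5 medium with 5 µM Y-27632, then exposed to compound at 1.5 nM–30 µM for 3 days at 37°C. Cells fixed on day 7, alpha-actinin-immunostained and total myotube area per well quantified; duplicates averaged, EC50 and normalized myotube area derived.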

## CCN(CC)Cc1ccc2cc(COC(=O)Nc3ccc(C(=O)NO)cc3)ccc2c1 [Givinostat, reference compound]
Pax7 positive cells
  drop of satellite cells content: about 50%
  loss of Pax7 positive cells: ~50%
[1]
  EC50: ≤ 170 nM

## C[C@]12C=CC(=O)C=C1CC[C@@H]1[C@@H]2[C@@H](O)C[C@@]2(C)[C@H]1CC[C@]2(O)C(=O)CO [Prednisolone, reference compound]
Pax7 positive cells
  drop of satellite cells content: about 50%
  loss of Pax7 positive cells: ~50%
[1]
  EC50: ≤ 170 nM

## CSc1cc(Oc2ccnc3[nH]c(=O)cnc23)ccc1NC(=O)Nc1cc(C(C)(C)C)nn1-c1ccc(C)c(Cl)c1 [(cl), 1-(3-(tert-butyl)-1-(3-chloro-4-methylphenyl)-1H-pyrazol-5-yl)-3-(2-(methylthio)-4-((3-oxo-3,4-dihydropyrido[2,3-b]pyrazin-8-yl)oxy)phenyl)urea]
[2]
  Emax: ≥ 75%
  EC50: < 500 nM

## CSc1cc(Oc2cccc3[nH]c(=O)cnc23)ccc1NC(=O)Nc1cc(C(C)(C)C)nn1-c1ccccc1 [(bu), 1-(3-(tert-butyl)-1-phenyl-1H-pyrazol-5-yl)-3-(2-(methylthio)-4-((2-oxo-1,2-dihydroquinoxalin-5-yl)oxy)phenyl)urea]
[2]
  Emax: 25 to 50%
  EC50: ≥ 5000 nM

## CC(C)(C)c1cc(NC(=O)Nc2ccc(Oc3ccccc3)cc2F)n(-c2ccccc2)n1 [(ac), 1-(3-(tert-butyl)-1-phenyl-1H-pyrazol-5-yl)-3-(2-fluoro-4-phenoxyphenyl)urea]
[2]
  Emax: 50 to 75%
  EC50: 1000 to 5000 nM

## CSc1cc(Oc2ccnc3[nH]c(=O)cnc23)ccc1NC(=O)Nc1cc(C(C)(C)C)nn1-c1ccc(CN(C)C)cc1 [(dp), 1-(3-(tert-butyl)-1-(4-((dimethylamino)methyl)phenyl)-1H-pyrazol-5-yl)-3-(2-(methylthio)-4-((3-oxo-3,4-dihydropyrido[2,3-b]pyrazin-8-yl)oxy)phenyl)urea]
[2]
  Emax: ≥ 75%
  EC50: < 500 nM

## CNC(=O)c1cncc(Oc2ccc(NC(=O)Nc3cc(C(C)(C)C)nn3-c3ccccc3)c(SC)c2)c1 [(ai), 5-(4-(3-(3-(tert-butyl)-1-phenyl-1H-pyrazol-5-yl)ureido)-3-(methylthio)phenoxy)-N-methylnicotinamide]
[2]
  EC50: 500 to 1000 nM

## CSc1cc(Oc2ccnc(NC(=O)OCc3ccccc3)c2)ccc1NC(=O)Nc1cc(C(C)(C)C)nn1-c1ccccc1 [(cx), benzyl (4-(4-(3-(3-(tert-butyl)-1-phenyl-1H-pyrazol-5-yl)ureido)-3-(methylthio)phenoxy)pyridin-2-yl)carbamate]
[2]
  Emax: ≥ 75%
  EC50: 500 to 1000 nM

## CSc1cc(Oc2ccnc3c2CCC(=O)N3)ccc1NC(=O)Nc1cc(C(C)(C)C)nn1-c1ccccc1 [(an), 1-(3-(tert-butyl)-1-phenyl-1H-pyrazol-5-yl)-3-(2-(methylthio)-4-((7-oxo-5,6,7,8-tetrahydro-1,8-naphthyridin-4-yl)oxy)phenyl)urea]
[2]
  Emax: ≥ 75%
  EC50: < 500 nM

## CCSc1cc(Oc2ccnc3[nH]c(=O)cnc23)ccc1NC(=O)Nc1cc(C(C)(C)C)nn1-c1ccccc1 [(am), 1-(3-(tert-butyl)-1-phenyl-1 H-pyrazol-5-yl)-3-(2-(ethylthio)-4-((3-oxo-3,4-dihydropyrido[2,3-b]pyrazin-8-yl)oxy)phenyl)urea]
[2]
  Emax: ≥ 75%
  EC50: < 500 nM

## CCOC(=O)Nc1cc(Oc2ccc(NC(=O)Nc3ncc(C(C)(C)C)s3)c(SC)c2)ccn1 [(df), ethyl (4-(4-(3-(5-(tert-butyl)thiazol-2-yl)ureido)-3-(methylthio)phenoxy)pyridin-2-yl)carbamate]
[2]
  Emax: ≥ 75%
  EC50: < 500 nM

## CC(C)(C)c1cc(NC(=O)Nc2ccc(Oc3ccnc4[nH]c(=O)cnc34)cc2F)n(-c2ncccn2)n1 [(m), 1-(3-(tert-butyl)-1-(pyrimidin-2-yl)-1 H-pyrazol-5-yl)-3-(2-fluoro-4-((3-oxo-3,4-dihydropyrido[2,3-b]pyrazin-8-yl)oxy)phenyl)urea]
[2]
  Emax: 50 to 75%
  EC50: ≥ 5000 nM

## CC(C)(C)c1cc(NC(=O)Nc2ccc(Oc3ccncc3)cc2F)n(-c2ccccc2)n1 [(ad), 1-(3-(tert-butyl)-1-phenyl-1H-pyrazol-5-yl)-3-(2-fluoro-4-(pyridin-4-yloxy)phenyl)urea]
[2]
  Emax: 25 to 50%
  EC50: 500 to 1000 nM

## CC(=O)Nc1cc(Oc2ccc(NC(=O)Nc3cc(C(C)(C)C)nn3-c3ccccc3)c3ccccc23)ccn1 [(dj), N-(4-((4-(3-(3-(tert-butyl)-1-phenyl-1H-pyrazol-5-yl)ureido)naphthalen-1-yl)oxy)pyridin-2-yl)acetamide]
[2]
  Emax: ≥ 75%
  EC50: < 500 nM

## CSc1cc(Oc2ccnc3[nH]c(=O)cnc23)ccc1NC(=O)Nc1cc(C(C)(C)C)nn1-c1ccc(OCCN2CCCCC2)cc1 [(ce), 1-(3-(tert-butyl)-1-(4-(2-(piperidin-1-yl)ethoxy)phenyl)-1H-pyrazol-5-yl)-3-(2-(methylthio)-4-((3-oxo-3,4-dihydropyrido[2,3-b]pyrazin-8-yl)oxy)phenyl)urea]
[2]
  Emax: ≥ 75%
  EC50: < 500 nM

## CC(C)(C)c1cc(NC(=O)Nc2ccc(Oc3ccnc4[nH]c(=O)cnc34)cc2F)n(-c2ccc3ncccc3c2)n1 [(n), 1-(3-(tert-butyl)-1-(quinolin-6-yl)-1 H-pyrazol-5-yl)-3-(2-fluoro-4-((3-oxo-3,4-dihydropyrido[2,3-b]pyrazin-8-yl)oxy)phenyl)urea]
[2]
  Emax: ≥ 75%
  EC50: < 500 nM

## CC(C)(C)c1cc(NC(=O)Nc2ccc(Oc3ccnc4[nH]c(=O)cnc34)cc2F)[nH]n1 [(h), 1-(3-(tert-butyl)-1H-pyrazol-5-yl)-3-(2-fluoro-4-((3-oxo-3,4-dihydropyrido[2,3-b]pyrazin-8-yl)oxy)phenyl)urea]
[2]
  Emax: 25 to 50%
  EC50: ≥ 5000 nM

## CSc1cc(Oc2ccnc3c2CCC(=O)N3)ccc1NC(=O)Nc1ncc(C(C)(C)C)s1 [(cb), 1-(5-(tert-butyl)thiazol-2-yl)-3-(2-(methylthio)-4-((7-oxo-5,6,7,8-tetrahydro-1,8-naphthyridin-4-yl)oxy)phenyl)urea]
[2]
  Emax: ≥ 75%
  EC50: < 500 nM

## CNC(=O)c1cc(Oc2ccc(NC(=O)Nc3cc(C(C)(C)C)nn3-c3ccc4ncccc4c3)c(SC)c2)ccn1 [(ag), 4-(4-(3-(3-(tert-butyl)-1-(quinolin-6-yl)-1H-pyrazol-5-yl)ureido)-3-(methylthio)phenoxy)-N-methylpicolinamide]
[2]
  Emax: ≥ 75%
  EC50: 1000 to 5000 nM

## O=C(Nc1ccc(Oc2ccnc3[nH]c(=O)cnc23)cc1F)Nc1cc(C2CC2)nn1-c1ccccc1 [(e), 1-(3-cyclopropyl-1-phenyl-1 H-pyrazol-5-yl)-3-(2-fluoro-4-((3-oxo-3,4-dihydropyrido[2,3-b]pyrazin-8-yl)oxy)phenyl)urea]
[2]
  Emax: 25 to 50%
  EC50: ≥ 5000 nM
